# Square brackets hold non-standard residues; d marks the D form. Peptide text beside a SMILES is read from it.
# What was measured:
# [1] = dissolved in 0.9% NaCl, up to 0.4 mg/ml
# Excerpt: To receive three different doses (cf. above, groups table) it has been serially diluted (1:10 fold).
# [2] = tested on: mouse model of scopolamine-induced dry eye; assay: Scopolamine-induced dry eye in mice (TBUT, PRTT, histopathology); assay type: in vivo; conditions: for TBUT mean nadir: TID topical ocular
# Excerpt: The objective of this study was to assess the effects of two different compounds, the all-D-retro-inverso JNK-inhibitor (poly-)peptide of SEQ ID NO: 197 and the JNK inhibitor (poly-)peptide of SEQ ID NO: 172, at three dose levels in a mouse model of scopolamine-induced dry eye.
# The study consisted of a total of 9 groups of female C57BL/6 mice, comprising 8 groups of 12 mice each and an additional group of 4 mice. Bilateral short-term dry eye was induced by a combination of scopolamine hydrobromide (Sigma-Aldrich Corp., St. Louis, Mo.) injection (subcutaneous (SC), four times daily, 0.5 mg/dose, Days 0-21) and by exposing mice to the drying environment of constant air draft. […] Mice of Group 9 were maintained as un-induced, (no dry eye) untreated controls.
# During the in-life (treatment) period, clinical observations were recorded once daily; slit-lamp examination (SLE) with corneal fluorescein staining, tear break-up time test (TBUT), and phenol red thread test (PRTT) were performed three times per week. Necropsies were performed on Day 22; eyes, eye lids, conjunctivae, and lacrimal glands were collected from both eyes of each animal. Tissues from the right eyes (oculus dexter, OD) were fixed and then evaluated microscopically. Tissues from the left eyes (oculus sinister; OS) were flash-frozen in liquid nitrogen and stored frozen at −80° C. for possible subsequent analyses.
# The TBUT test was conducted three times weekly by measuring the time elapsed in seconds between a complete blink after application of fluorescein to the cornea and the appearance of the first random dry spot in the tear film. […] At least ninety seconds later, corneal epithelial damage was graded using a slit-lamp with a cobalt blue filter after another drop of 0.1% fluorescein was reapplied to the cornea; the cornea then was scored per the Draize ocular scale.
# Tear production was measured three times a week in both eyes using PRTT test strips (Zone-Quick; Menicon, Nagoya, Japan). Prior to the first treatment of the day, a thread was applied to the lateral canthus of the conjunctival fornix of each eye for 30 seconds under slit-lamp biomicroscopy. Tear migration up the tread (i.e., the length of the wetted cotton thread) was measured using a millimeter scale.
# At necropsy on Day 22, both eyes from each animal, including the globes, lacrimal glands, eyelids, and conjunctivae, were excised. The right eye and associated tissues were fixed by overnight submersion in modified Davidson's solution followed by transfer to 10% neutral buffered formalin (NBF). The fixed tissues of the right eye were dehydrated, embedded in paraffin, sectioned at 3 to 5-μm thicknesses, and slide-mounted tissues were stained with hematoxylin and eosin (H & E). Stained slides were evaluated via light microscopy. Detailed and complete histopathologic assessment was conducted on all parts of the eye, with at least two section levels being examined histopathologically for each right eye. Special attention was paid to the cornea, epithelia (including goblet cells) of the conjunctiva and cornea, as well as the lacrimal gland. These tissues were scored for injury based upon a 0-4 scale, with 0 being normal, 1 being minimal, 2 being mild, 3 being moderate, and 4 being severe. For each cornea, scores were based on corneal epithelium thickness, and corneal inflammation. Conjunctivae were scored for erosion and inflammation as well as presence or absence of goblet cells.
# [3] = tested on: established type II collagen arthritis in rats
# [4] = tested on: IMQ-induced psoriasis in BALB/c mice; assay: Imiquimod-induced psoriasis in mice, ear histopathology; assay type: in vivo, mouse
# Experimental: Female BALB/cAnNCrl mice (Charles River, age 8 to 10 weeks at study start) have been assigned to the following groups (treatment schedule):
# In this experiment, two positive controls have been utilized. Firstly, Prednisolone at 10 mg/kg (vehicle: 1% Hydroxyethylcellulose, 0.25% Polysorbate 80, and 0.05% Antifoam in purified water) has been dosed daily and orally (group “Prednisolone”). Secondly, Dexamethasone has been administered at 0.5 mg/kg (vehicle: sterile 0.9% NaCl) on days 1, 4 and 7 via intravenous route.
# On day 8, animals have been sacrificed and the tissue (ear) has been fixed in 10% neutral buffered formalin. For histopathology hematoxylin-and-eosin-stained sections (cross cut) have been prepared and microscopic evaluation on the collected tissues from all animals has been performed. Methods and end-points for histopathology were similarly described in the van der Fits (2009) paper in that inflammation, epidermal hyperplasia, epidermal hyperkeratosis (rather than parakeratosis) were observed and recorded for severity grade, whereby the respective methodology from Van der Fits et al. (The Journal of Immunology 2009, 182, P. 5836-5845) is hereby incorporated by reference. Histopathology grading scores were excluded for either skin or ear in animals with secondary inflammatory processes (full thickness epidermal ulcers). Scores were averaged by group and standard deviation and statistical significance were calculated. […] Formalin-fixed, paraffin embedded skin from the dorsal surface of the mouse (BALB/c) was stained with hematoxylin and eosin (H&E) stain and assessed microscopically. An important difference from the above reference and to describe in more detail the observations of the present study: Hyperkeratosis can be defined specifically as orthokeratotic (no retained nuclei) or parakeratotic (retained nuclei). Either can occur normally in various anatomical locations and depending on species; however, both conditions are well defined in particular disease states. The van der Fits paper describes their Imiquimod (IMQ)-induced psoriasis model as causing parakeratotic hyperkeratosis similar to what is seen in the human condition, and that was a defined end-point for this study. However, the Danilenko et al. (Veterinary Pathology 2008 45:563) has shown that many rodent psoriasis models have orthokeratotic hyperkeratosis. […] The more general term ‘hyperkeratosis’ was used for grading end-points and describe in the text what type was seen (primarily orthokeratotic).
# 1=MI=minimal 2=SL=slight 3=M0=moderate 4=MA=marked 5=SE=severe
# [5] = SEQ ID NO: 172 0.01-5 mg/kg IV QD
smiles,measurement,setting,value
"CC(C)C[C@H](NC(=O)[C@H](CC(N)=O)NC(=O)[C@H](CC(C)C)NC(=O)[C@@H](NC(=O)[C@@H](C)NC(=O)[C@@H]1CCCN1C(=O)[C@H](CCCNC(=N)N)NC(=O)[C@@H](CCCCN)NC(=O)[C@@H]1CCCN1C(=O)[C@H](CCCNC(=N)N)NC(=O)[C@@H](CCCNC(=N)N)NC(=O)[C@H](CCCNC(=N)N)NC(=O)[C@H](CCCNC(=N)N)NC(=O)[C@H](CCC(N)=O)NC(=O)[C@@H](CCCNC(=N)N)NC(=O)[C@H](CCCNC(=N)N)NC(=O)[C@H](CCCCN)NC(=O)[C@H](CCCCN)NC(=O)[C@H](N)CCCNC(=N)N)[C@@H](C)O)C(=O)N[C@H](Cc1ccccc1)C(N)=O [SEQ ID NO: 172, rKKRrQRRrRPkRPaTLNLf] (H-[dR]KKR[dR]QRR[dR]RP[dK]RP[dA]TLNL[dF]-NH2)",solubility,[1],readily soluble
same,TBUT mean nadir,"[2]; Day 7, high-dose 0.6% (Group 7)",6.7 ± 0.3 s
same,TBUT mean nadir,"[2]; Day 7, low-dose 0.05% (Group 5)",6.6 ± 0.4 s
same,TBUT mean nadir,"[2]; Day 7, mid-dose 0.2% (Group 6)",6.7 ± 0.4 s
same,TBUT mean peak,"[2]; Day 9, high-dose 0.6% (Group 7)",9.9 ± 0.8 s
same,TBUT mean peak,"[2]; Day 9, low-dose 0.05% (Group 5)",8.0 ± 0.4 s
same,TBUT mean peak,"[2]; Day 9, mid-dose 0.2% (Group 6)",10.0 ± 0.7 s
same,"PRTT, aqueous tear production compared with cyclosporine","[2]; Day 21, mid and high-dose (Groups 6 and 7)",therapeutic effects similar to cyclosporine
same,TBUT means compared with vehicle group,"[2]; low, medium and high-dose, Groups 2, 3 and 4",above the vehicle group
same,aqueous tear production (PRTT) compared with vehicle,"[2]; low, mid or high-dose SEQ ID NO: 172",significantly more aqueous tears compared to vehicle-treated animals
same,histological cornea scores compared with cyclosporine group,"[2]; mid and high-dose SEQ ID NO: 172 (Groups 6, 7), high-dose SEQ ID NO: 197 (Group 4)",not significantly different than the cyclosporine group scores
same,daily ankle diameter measurements vs disease controls,"[3]; 5 mg/kg IV QD, p<0.05 days 4-12",significantly (p<0.05 by 2-way RM ANOVA) reduced toward normal
same,adverse effect on organ weights,[3]; IV QD days 1-14,no adverse effect on organ weights
same,relative spleen weights,[3]; [5],not significantly affected
same,relative thymus weights,[3]; [5],not significantly affected
same,inflammation of the ear (average histopathology grade) vs vehicle-IMQ group,"[4]; high-dose 2 mg/kg IV days 1, 4, 7",decreased inflammation of the ear
same,"epidermal hyperkeratosis of the ear, average grades vs vehicle-IMQ group","[4]; low-dose 0.02 mg/kg IV days 1, 4, 7",minimally decreased average grades
same,inflammation of the ear (average histopathology grade) vs vehicle-IMQ group,"[4]; mid-dose 0.2 mg/kg IV days 1, 4, 7, statistically significant, 0.2 mg/kg",decreased inflammation of the ear
same,inflammation of the ear (average histopathology grade) vs vehicle-IMQ group,"[4]; mid-dose 0.2 mg/kg IV days 1, 4, 7, statistically significant, listed as XG-104, 0.2 mg/kg",significant differences from the vehicle control group
same,epidermal hyperplasia of the ear vs vehicle-IMQ group,"[4]; mid-dose 0.2 mg/kg IV, not statistically significant",Minimal decreases in epidermal hyperplasia of the ear
